According to patent US10294202B2, “Pyrrolidinones as herbicides” (FMC Corporation, priority 2013, dated 2019):

How the values were obtained:
barnyardgrass [1] = experiment: Test A pre-/postemergence herbicide test; format: in vivo, Echinochloa crus-galli
Method in brief: (§1)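 Seeds in loam–sand blend received preemergence directed soil spray; separately, plants 2–10 cm at one- to two-leaf stage received postemergence spray, both with test chemicals in non-phytotoxic solvent with surfactant. After ~10 days in greenhouse, injury rated visually against untreated controls, 0 (no effect) to 100 (complete control).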

kochia = experiment: Test A pre-/postemergence herbicide test; format: in vivo, Kochia scoparia
Method in brief: as §1

ragweed = experiment: Test A pre-/postemergence herbicide test; format: in vivo, Ambrosia elatior
Method in brief: as §1

ryegrass, Italian = experiment: Test A pre-/postemergence herbicide test; format: in vivo, Lolium multiflorum
Method in brief: as §1

giant foxtail = experiment: Test A pre-/postemergence herbicide test; format: in vivo, Setaria faberii
Method in brief: as §1

pigweed = experiment: Test A pre-/postemergence herbicide test; format: in vivo, Amaranthus retroflexus
Method in brief: as §1

wheat = experiment: Test A pre-/postemergence herbicide test; format: in vivo, Triticum aestivum; conditions: Postemergence
Method in brief: as §1

corn = experiment: Test A pre-/postemergence herbicide test; format: in vivo, Zea mays; conditions: Postemergence
Method in brief: as §1

blackgrass = experiment: Test A postemergence herbicide test; format: in vivo, Alopecurus myosuroides
Method in brief: (§2)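 Young potted plants in a loam–sand mix, one- to two-leaf stage and 2–10 cm tall, receive the test chemical postemergence and stay in a greenhouse for approximately 10 days. Injury is then judged by eye against untreated plants, scored 0 (none) to 100 (complete control).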

galium = experiment: Test A postemergence herbicide test; format: in vivo, Galium aparine
Method in brief: as §2

rice = experiment: Test B flooded paddy test; format: in vivo, Oryza sativa; conditions: 500 g ai/ha, Flood; scale of 0 to 100 where 0 is no effect and 100 is complete control
Method in brief: (§3)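 Scored visually 0–100 (0 no effect, 100 complete control) versus controls after 13 to 15 greenhouse days. Treatment: compound added to paddy water kept 3 cm above soil, on 2-leaf-stage plants.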

sedge, umbrella = experiment: Test B flooded paddy test; format: in vivo, Cyperus difformis; conditions: 500 g ai/ha, Flood; scale of 0 to 100 where 0 is no effect and 100 is complete control
Method in brief: as §3

ducksalad = experiment: Test B flooded paddy test; format: in vivo, Heteranthera limosa; conditions: 500 g ai/ha, Flood; scale of 0 to 100 where 0 is no effect and 100 is complete control
Method in brief: as §3

barnyardgrass [2] = experiment: Test B flooded paddy test; format: in vivo, Echinochloa crus-galli; conditions: 500 g ai/ha, Flood; scale of 0 to 100 where 0 is no effect and 100 is complete control
Method in brief: as §3

[3] = Postemergence, 125 g ai/ha, visual rating on 0 to 100 scale (0 no effect, 100 complete control), approx. 10 days
[4] = Postemergence, 500 g ai/ha, 0 to 100 scale (0 no effect, 100 complete control)
[5] = Preemergence, 125 g ai/ha, 0 to 100 scale where 0 is no effect and 100 is complete control
[6] = Preemergence, 500 g ai/ha, visual rating on 0 to 100 scale (0 no effect, 100 complete control)
[7] = 125 g ai/ha, visual rating on 0 to 100 scale (0 no effect, 100 complete control), approx. 10 days
[8] = 500 g ai/ha, 0 to 100 scale (0 no effect, 100 complete control)
[9] = 125 g ai/ha, visual rating, 0 to 100 scale, 0 no effect, 100 complete control, approximately 10 days, preemergence
[10] = Postemergence, 125 g ai/ha, 0 to 100 scale, 0 is no effect, 100 is complete control
[11] = preemergence, 500 g ai/ha, 0 to 100 scale, 0 is no effect and 100 is complete control
[12] = 125 g ai/ha, 0 to 100 scale, 0 is no effect, 100 is complete control

`O=C1NCC(c2cccc(Oc3ccccc3)c2)C1C(=O)Nc1ccc(F)c(F)c1F` (stereo not drawn) [Compound 333] was tested. Which “Plant response rating, Barnyardgrass” value (barnyardgrass [1]; [3]) did it give?
The value was 20.

What about the “Plant response rating, Barnyardgrass” value (barnyardgrass [1]; [4]) of the same molecule?
Its value is 60.

And the “Plant response rating, Barnyardgrass” value (barnyardgrass [1]; [5])?
The value was 50.

And the “Barnyardgrass plant response rating” value (barnyardgrass [1]; [6])?
The value was 90.

And the “Plant response rating, Kochia” value (kochia; [3])?
Its value is 0.

What about the “Plant response rating, Kochia” value (kochia; [4]) of the same molecule?
Its value is 20.

And the “Plant response rating, Kochia” value (kochia; [5])?
The value was 0.

And the “Kochia plant response rating” value (kochia; [6])?
The value was 0.

What about the “Plant response rating, Ragweed” value (ragweed; [3]) of the same molecule?
The value was 0.

And the “Plant response rating, Ragweed” value (ragweed; [4])?
The value was 20.

And the “Plant response rating, Ragweed” value (ragweed; [5])?
The value was 0.

What about the “Ragweed plant response rating” value (ragweed; [6]) of the same molecule?
Its value is 0.

What about the “Plant response rating, Ryegrass, Italian” value (ryegrass, Italian; [3]) of the same molecule?
Its value is 0.

What about the “Plant response rating, Ryegrass, Italian” value (ryegrass, Italian; [4]) of the same molecule?
The value was 30.

What about the “Plant response rating, Ryegrass, Italian” value (ryegrass, Italian; [5]) of the same molecule?
The value was 0.

What about the “Ryegrass, Italian plant response rating” value (ryegrass, Italian; [6]) of the same molecule?
Its value is 20.

And the “Plant response rating, Foxtail, Giant” value (giant foxtail; [3])?
The value was 50.

What about the “Plant response rating, Foxtail, Giant” value (giant foxtail; [4]) of the same molecule?
Its value is 80.

And the “Plant response rating, Foxtail, Giant” value (giant foxtail; [5])?
The value was 80.

What about the “Foxtail, Giant plant response rating” value (giant foxtail; [6]) of the same molecule?
Its value is 90.

And the “Plant response rating, Pigweed” value (pigweed; [3])?
Its value is 0.

What about the “Plant response rating, Pigweed” value (pigweed; [4]) of the same molecule?
Its value is 20.

What about the “Plant response rating, Pigweed” value (pigweed; [5]) of the same molecule?
Its value is 0.

What about the “Pigweed plant response rating” value (pigweed; [6]) of the same molecule?
Its value is 0.

And the “Plant response rating, Wheat” value (wheat; [7])?
Its value is 0.

What about the “Plant response rating, Wheat” value (wheat; [8]) of the same molecule?
The value was 20.

And the “Plant response rating, Corn” value (corn; [7])?
Its value is 0.

And the “Plant response rating, Corn” value (corn; [8])?
Its value is 20.

What about the “Plant response rating, Blackgrass” value (blackgrass; [7]) of the same molecule?
Its value is 0.

What about the “Plant response rating, Blackgrass” value (blackgrass; [8]) of the same molecule?
Its value is 30.

What about the “Plant response rating, Galium” value (galium; [7]) of the same molecule?
The value was 0.

And the “Plant response rating, Galium” value (galium; [8])?
Its value is 40.

And the “Plant response rating, Rice” value (rice)?
Its value is 0.

What about the “Plant response rating, Sedge, Umbrella” value (sedge, umbrella) of the same molecule?
Its value is 0.

And the “Plant response rating, Ducksalad” value (ducksalad)?
Its value is 20.

What about the “Plant response rating, Barnyardgrass” value (barnyardgrass [2]) of the same molecule?
Its value is 0.

How did the “Plant response rating, Barnyardgrass” value (barnyardgrass [1]; [9]) turn out when `Cc1ccc(C2CNC(=O)C2C(=O)Nc2cccc(F)c2)cc1` (racemic) [Compound 153] was run?
Its value is 80.

What about the “Plant response rating, Barnyardgrass” value (barnyardgrass [1]; [10]) of the same molecule?
The value was 60.

And the “Barnyardgrass plant response rating (0 to 100 scale, 0 is no effect, 100 is complete control)” value (barnyardgrass [1]; Postemergence, 500 g ai/ha)?
Its value is 80.

What about the “Plant response rating, Barnyardgrass” value (barnyardgrass [1]; preemergence, 500 g ai/ha, 0 to 100 scale (0 no effect, 100 complete control)) of the same molecule?
The value was 90.

And the “Plant response rating, Kochia” value (kochia; [9])?
Its value is 60.

And the “Plant response rating, Kochia” value (kochia; [10])?
Its value is 60.

What about the “Kochia plant response rating (0 to 100 scale, 0 is no effect, 100 is complete control)” value (kochia; Postemergence, 500 g ai/ha) of the same molecule?
Its value is 60.

And the “Plant response rating, Kochia” value (kochia; [11])?
The value was 80.

And the “Plant response rating, Ragweed” value (ragweed; [9])?
Its value is 0.

What about the “Plant response rating, Ragweed” value (ragweed; [10]) of the same molecule?
The value was 0.

And the “Ragweed plant response rating (0 to 100 scale, 0 is no effect, 100 is complete control)” value (ragweed; Postemergence, 500 g ai/ha)?
The value was 10.

What about the “Plant response rating, Ragweed” value (ragweed; [11]) of the same molecule?
Its value is 80.

And the “Plant response rating, Ryegrass, Italian” value (ryegrass, Italian; [9])?
Its value is 0.

What about the “Plant response rating, Ryegrass, Italian” value (ryegrass, Italian; [10]) of the same molecule?
The value was 0.

And the “Ryegrass, Italian plant response rating (0 to 100 scale, 0 is no effect, 100 is complete control)” value (ryegrass, Italian; Postemergence, 500 g ai/ha)?
The value was 0.

And the “Plant response rating, Ryegrass, Italian” value (ryegrass, Italian; [11])?
The value was 0.

What about the “Plant response rating, Foxtail, Giant” value (giant foxtail; [9]) of the same molecule?
The value was 60.

And the “Plant response rating, Foxtail, Giant” value (giant foxtail; [10])?
Its value is 50.

And the “Foxtail, Giant plant response rating (0 to 100 scale, 0 is no effect, 100 is complete control)” value (giant foxtail; Postemergence, 500 g ai/ha)?
The value was 60.

And the “Plant response rating, Foxtail, Giant” value (giant foxtail; preemergence, 500 g ai/ha, 0 to 100 scale)?
Its value is 80.

And the “Plant response rating, Pigweed” value (pigweed; [9])?
Its value is 0.

What about the “Plant response rating, Pigweed” value (pigweed; [10]) of the same molecule?
Its value is 40.

And the “Pigweed plant response rating (0 to 100 scale, 0 is no effect, 100 is complete control)” value (pigweed; Postemergence, 500 g ai/ha)?
Its value is 50.

What about the “Plant response rating, Pigweed” value (pigweed; [11]) of the same molecule?
The value was 0.

What about the “Plant response rating, Wheat” value (wheat; [12]) of the same molecule?
The value was 0.

What about the “Wheat plant response rating (0 to 100 scale, 0 is no effect, 100 is complete control)” value (wheat; 500 g ai/ha) of the same molecule?
The value was 0.

And the “Plant response rating, Corn” value (corn; [12])?
Its value is 0.

What about the “Corn plant response rating (0 to 100 scale, 0 is no effect, 100 is complete control)” value (corn; 500 g ai/ha) of the same molecule?
Its value is 0.

What about the “Plant response rating, Blackgrass” value (blackgrass; [12]) of the same molecule?
Its value is 40.

What about the “Blackgrass plant response rating (0 to 100 scale, 0 is no effect, 100 is complete control)” value (blackgrass; 500 g ai/ha) of the same molecule?
Its value is 30.

And the “Plant response rating, Galium” value (galium; [12])?
Its value is 0.

What about the “Galium plant response rating (0 to 100 scale, 0 is no effect, 100 is complete control)” value (galium; 500 g ai/ha) of the same molecule?
Its value is 60.

What about the “Plant response rating, Rice” value (rice) of the same molecule?
The value was 10.

And the “Plant response rating, Sedge, Umbrella” value (sedge, umbrella)?
The value was 0.

What about the “Plant response rating, Ducksalad” value (ducksalad) of the same molecule?
Its value is 100.

What about the “Plant response rating, Barnyardgrass” value (barnyardgrass [2]) of the same molecule?
The value was 60.
